Data reported in PMC4852132 (Biochemistry, 2016).
Where “and” joins values, the source holds several entries; their conditions need not be identical. Identical values can stand only once. Like-named read-outs stand apart in the source and are kept apart here.

Columns and labels:
E1p-h [1] = molecular target: T1, E1p-h (Homo sapiens, UniProt P08559+P11177); experiment: E1p-h specific activity by rate of reduction of DCPIP; type: biochemical; settings: for E1p-h specific activity, percent of that with ThDP: cofactor 0.2 or 0.5 mM
T1 sequence (P08559 30-390): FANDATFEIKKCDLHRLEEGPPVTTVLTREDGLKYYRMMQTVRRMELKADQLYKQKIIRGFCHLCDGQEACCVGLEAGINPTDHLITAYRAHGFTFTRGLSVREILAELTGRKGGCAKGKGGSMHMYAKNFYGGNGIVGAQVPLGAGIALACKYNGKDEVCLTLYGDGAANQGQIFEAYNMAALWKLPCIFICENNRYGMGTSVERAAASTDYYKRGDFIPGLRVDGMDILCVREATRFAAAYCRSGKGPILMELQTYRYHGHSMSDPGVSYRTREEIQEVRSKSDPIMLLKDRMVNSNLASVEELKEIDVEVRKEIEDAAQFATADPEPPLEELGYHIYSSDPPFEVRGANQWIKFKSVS
T1 sequence (P11177 31-359): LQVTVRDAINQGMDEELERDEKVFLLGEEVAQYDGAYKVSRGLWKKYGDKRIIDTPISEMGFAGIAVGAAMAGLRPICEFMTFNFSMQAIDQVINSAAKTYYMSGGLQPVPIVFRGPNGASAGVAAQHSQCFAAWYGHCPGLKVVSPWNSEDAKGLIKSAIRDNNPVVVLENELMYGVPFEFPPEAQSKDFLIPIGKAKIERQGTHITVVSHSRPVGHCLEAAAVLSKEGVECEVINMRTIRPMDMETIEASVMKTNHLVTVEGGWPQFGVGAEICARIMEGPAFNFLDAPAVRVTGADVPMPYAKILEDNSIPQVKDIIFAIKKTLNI

OGDHc-ec = OGDHc-ec (Escherichia coli, UniProt P0AFG3); experiment: Overall OGDHc-ec activity by formation of NADH; type: biochemical
PDHc-ec [2] = molecular target: T2, PDHc-ec (Escherichia coli, UniProt P0AFG8)
E1p-h [3] = molecular target: T1, E1p-h; settings: MeOThDP bound on E1p-h; CD309 vs pH
E1p-ec [4] = molecular target: T3, E1p-ec (Escherichia coli, UniProt P0AFG8)
DXPS [5] = molecular target: T4, DXPS (Escherichia coli, UniProt P77488); settings: apo-DXPS with 0.10 mM cofactor
E1o-h = molecular target: T5, E1o-h (Homo sapiens, UniProt Q02218); experiment: E1o-h specific activity; type: biochemical
T5 sequence (Q02218 41-1023): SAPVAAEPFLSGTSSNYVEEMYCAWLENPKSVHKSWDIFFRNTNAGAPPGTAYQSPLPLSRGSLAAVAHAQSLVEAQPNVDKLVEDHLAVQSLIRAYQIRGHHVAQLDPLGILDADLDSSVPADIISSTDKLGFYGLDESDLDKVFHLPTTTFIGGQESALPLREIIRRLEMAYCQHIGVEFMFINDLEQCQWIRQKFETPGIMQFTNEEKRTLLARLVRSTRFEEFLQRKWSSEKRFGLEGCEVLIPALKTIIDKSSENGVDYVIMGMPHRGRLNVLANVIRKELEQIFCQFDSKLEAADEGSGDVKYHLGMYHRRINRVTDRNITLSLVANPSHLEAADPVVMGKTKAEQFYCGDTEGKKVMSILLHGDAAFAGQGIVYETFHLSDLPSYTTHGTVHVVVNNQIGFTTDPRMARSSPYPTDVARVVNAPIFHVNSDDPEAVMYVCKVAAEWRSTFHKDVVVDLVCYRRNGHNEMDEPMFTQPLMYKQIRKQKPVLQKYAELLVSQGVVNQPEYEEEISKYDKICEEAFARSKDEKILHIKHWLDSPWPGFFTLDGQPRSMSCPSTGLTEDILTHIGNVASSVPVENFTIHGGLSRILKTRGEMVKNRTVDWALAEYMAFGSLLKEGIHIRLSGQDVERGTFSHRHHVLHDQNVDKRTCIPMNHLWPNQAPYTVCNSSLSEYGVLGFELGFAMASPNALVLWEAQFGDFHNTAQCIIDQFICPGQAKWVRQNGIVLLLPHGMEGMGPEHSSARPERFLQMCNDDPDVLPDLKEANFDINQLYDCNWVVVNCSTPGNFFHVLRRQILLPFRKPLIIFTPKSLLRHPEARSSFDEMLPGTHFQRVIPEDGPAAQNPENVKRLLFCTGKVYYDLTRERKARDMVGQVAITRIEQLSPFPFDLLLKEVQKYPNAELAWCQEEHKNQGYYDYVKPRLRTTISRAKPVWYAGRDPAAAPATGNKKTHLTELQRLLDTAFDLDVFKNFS

E1o-ec = E1o-ec (Escherichia coli, UniProt P0AFG3); experiment: E1o-ec specific activity; type: biochemical
PDHc-ec [6] = molecular target: T2, PDHc-ec; settings: ThDP binding to PDHc-ec; cited from earlier work
E1p-h [7] = molecular target: T1, E1p-h; settings: ThDP on E1p-h; cited from earlier work
E1p-ec [8] = molecular target: T3, E1p-ec; settings: E1p-ec complexed with ThDP; cited from earlier work
E1p-ec [9] = molecular target: T3, E1p-ec; experiment: biochemical
DXPS [10] = molecular target: T4, DXPS; experiment: biochemical
[11] = MeOThDP, PDHc-ec reconstituted from apo-E1p-ec, from lag phase

Compound: COc1ncc(C[n+]2csc(CCOP(=O)(O)OP(=O)(O)O)c2C)c(N)n1 [MeOThDP, 2′-methoxythiamin diphosphate]
- E1p-h specific activity (E1p-h [1]; cofactor 0.2 and 0.5 mM, E1p-h alone, model reaction): 0.017 ± 0.01 µmol min^−1 (mg of E1p-h)^−1
- E1p-h specific activity, percent of that with ThDP (E1p-h [1]): ~49%
- overall OGDHc activity, percent of that with ThDP (OGDHc-ec; listed as MeOThP): 42% and 69%
- K1 binding constant (PDHc-ec [2]; MeOThDP, PDHc-ec reconstituted from apo-E1p-ec, E2p-ec, E3-ec, from lag phase): 300000 M⁻¹
- k2 forward rate constant of binding (PDHc-ec [2]; [11]): 0.0087 s⁻¹
- k3 forward rate constant for second cofactor binding (PDHc-ec [2]; [11]): 49 M⁻¹ s⁻¹
- k-2 dissociation rate constant (PDHc-ec [2]; [11]): 0.0033 s⁻¹
- k-3 reverse rate constant for dissociation of second cofactor (PDHc-ec [2]; [11]): 0.0069 s⁻¹
- k3 times lower than that for ThDP (PDHc-ec [2]; binding of second MeOThDP vs ThDP): ~ 14 times
- Kd (PDHc-ec [2]; read-out: Kd,MeOThDP calculated as 1/K1,MeOThDP, from Table 2): 3.45 ± 0.74 µM
- pKa for the ([AP] + [IP])/[APH^+] equilibrium (E1p-h [3]): 8.02 ± 0.03
- rate constant of reductive acetylation of LDh-ec (E1p-ec [4]; E1p-ec complexed with MeOThDP (0.20 mM), 2 mM pyruvate): 4.4 s⁻¹
- rate constant of reductive acetylation, times slower than with ThDP (E1p-ec [4]; E1p-ec with MeOThDP vs ThDP): at least 10 times
- DXPS activity, percent of that with ThDP (DXPS [5]): 9–14% and 8.8% and 14% and ~ 8.8% and ~ 14%
- DXPS activity (DXPS [5]; 37 °C, independent preparations): 0.26 ± 0.04 µmol min^−1 (mg of DXPS)^−1 and 0.30 ± 0.01 µmol min^−1 (mg of DXPS)^−1

Compound: Cc1ncc(C[n+]2csc(CCOP(=O)([O-])OP(=O)(O)O)c2C)c(N)n1 [ThDP, thiamin diphosphate]
- E1p-h specific activity, percent of that with ThDP (E1p-h [1]): 100%
- overall OGDHc activity, percent of that with ThDP (OGDHc-ec): 100%
- E1o specific activity, percent of that with ThDP (E1o-h; E1o-h): 100%
- E1o specific activity (E1o-h; E1o-h alone): 0.51 ± 0.02 µmol min^−1 (mg of E1o)^−1 and 0.44 ± 0.08 µmol min^−1 (mg of E1o)^−1
- E1o specific activity, percent of that with ThDP (E1o-ec; E1o-ec): 100%
- E1o specific activity (E1o-ec; E1o-ec alone): 0.54 ± 0.03 µmol min^−1 (mg of E1o)^−1 and 0.54 ± 0.31 µmol min^−1 (mg of E1o)^−1
- DXPS activity, percent of that with ThDP (DXPS [5]): 100%
- K1 binding constant (PDHc-ec [6]): 1.2e+06 M⁻¹
- k2 forward rate constant of binding (PDHc-ec [6]): 0.0112 s⁻¹
- k3 forward rate constant for second cofactor binding (PDHc-ec [6]): 710 M⁻¹ s⁻¹
- k-2 dissociation rate constant (PDHc-ec [6]): 0.0038 s⁻¹
- k-3 reverse rate constant for dissociation of second cofactor (PDHc-ec [6]): 0.0076 s⁻¹
- pKa for the ([AP] + [IP])/[APH^+] equilibrium (E1p-h [7]): 7.07 ± 0.1
- rate constant of reductive acetylation of LDh-ec (E1p-ec [8]): 52 s⁻¹
- Kd (E1p-ec [9]): 7 ± 0.9 µM
- Kd (DXPS [10]): 3.5 ± 0.1 µM
